{
  "source": "patent US20250268959A1",
  "about": "“COMPOSITIONS CONTAINING INDOLE-DERIVED METABOLITES AND METHODS OF USE THEREOF” (Imvela Corp., priority 2024, published 2025)",
  "key": {"AhR [1]": {"biological_target": "T1, AhR (Canis lupus familiaris, UniProt A0A8I3RSX6)", "T1 sequence (A0A8I3RSX6 1-853)": "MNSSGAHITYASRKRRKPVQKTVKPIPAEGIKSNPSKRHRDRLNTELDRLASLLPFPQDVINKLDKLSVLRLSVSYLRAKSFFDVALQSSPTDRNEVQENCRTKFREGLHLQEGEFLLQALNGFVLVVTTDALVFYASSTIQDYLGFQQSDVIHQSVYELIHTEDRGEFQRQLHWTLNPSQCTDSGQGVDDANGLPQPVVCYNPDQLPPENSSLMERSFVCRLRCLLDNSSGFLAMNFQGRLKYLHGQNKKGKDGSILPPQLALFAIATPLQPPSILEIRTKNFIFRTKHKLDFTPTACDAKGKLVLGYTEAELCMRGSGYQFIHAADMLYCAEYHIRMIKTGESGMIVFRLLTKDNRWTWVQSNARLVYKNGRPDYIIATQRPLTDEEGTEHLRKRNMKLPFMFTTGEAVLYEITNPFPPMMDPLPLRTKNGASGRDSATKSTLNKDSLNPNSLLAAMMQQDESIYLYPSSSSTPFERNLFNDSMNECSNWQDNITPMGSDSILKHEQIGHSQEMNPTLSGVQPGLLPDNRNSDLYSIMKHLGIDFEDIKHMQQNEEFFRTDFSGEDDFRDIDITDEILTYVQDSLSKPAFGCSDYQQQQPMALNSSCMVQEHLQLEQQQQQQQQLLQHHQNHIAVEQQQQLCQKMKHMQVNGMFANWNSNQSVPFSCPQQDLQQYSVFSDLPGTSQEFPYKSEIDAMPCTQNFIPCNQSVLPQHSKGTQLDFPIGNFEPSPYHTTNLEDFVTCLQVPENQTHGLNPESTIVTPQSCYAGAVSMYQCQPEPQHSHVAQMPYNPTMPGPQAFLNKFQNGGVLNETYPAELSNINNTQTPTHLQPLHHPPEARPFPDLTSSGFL", "assay": "AhR activation, in vitro luminescence assay in canine cell lines expressing AhR", "type": "cell-based", "details": "canine cell line expressing AhR; 200 μM; normalized to methylcholanthrene (FIG. 5)", "method": "(§1) The utility of ILA and IAld in multiple host was validated by an in vitro assay. Human or canine cell lines expressing AhR were exposed to ILA or IAld at 200 μM, and AhR activation was assayed using in vitro luminescence."}, "AhR [2]": {"biological_target": "T2, AhR (Homo sapiens, UniProt P35869)", "T2 sequence (P35869 11-848)": "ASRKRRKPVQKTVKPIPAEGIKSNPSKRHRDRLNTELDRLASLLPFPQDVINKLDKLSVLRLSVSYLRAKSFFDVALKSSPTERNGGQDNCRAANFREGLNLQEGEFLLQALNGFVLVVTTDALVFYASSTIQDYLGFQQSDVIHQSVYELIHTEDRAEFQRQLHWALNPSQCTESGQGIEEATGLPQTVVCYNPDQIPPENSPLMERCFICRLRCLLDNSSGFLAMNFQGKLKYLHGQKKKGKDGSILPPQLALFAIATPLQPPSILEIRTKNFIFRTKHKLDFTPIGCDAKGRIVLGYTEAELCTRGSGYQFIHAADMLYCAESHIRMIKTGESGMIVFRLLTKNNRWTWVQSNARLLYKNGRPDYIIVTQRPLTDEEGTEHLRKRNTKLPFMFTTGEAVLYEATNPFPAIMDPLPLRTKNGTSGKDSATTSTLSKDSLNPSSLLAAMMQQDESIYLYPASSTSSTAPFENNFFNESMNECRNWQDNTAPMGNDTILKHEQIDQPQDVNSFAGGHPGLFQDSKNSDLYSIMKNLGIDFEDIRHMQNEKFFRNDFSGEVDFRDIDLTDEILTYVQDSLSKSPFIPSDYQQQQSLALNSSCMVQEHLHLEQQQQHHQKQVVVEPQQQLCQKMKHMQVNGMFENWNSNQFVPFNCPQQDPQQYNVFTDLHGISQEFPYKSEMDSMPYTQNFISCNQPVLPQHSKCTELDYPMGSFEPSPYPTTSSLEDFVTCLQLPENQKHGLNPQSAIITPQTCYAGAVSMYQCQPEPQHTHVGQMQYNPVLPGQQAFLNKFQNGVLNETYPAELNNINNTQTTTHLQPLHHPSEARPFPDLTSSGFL", "assay": "AhR activation, in vitro luminescence assay in human cell lines expressing AhR", "type": "cell-based", "details": "human cell line expressing AhR; 200 μM; normalized to methylcholanthrene (FIG. 5)", "method": "as §1"}, "[3]": {"details": "rats; IPA supplementation; over 1 week; cited from earlier work"}, "[4]": {"details": "mice; IPA supplementation; in 2 weeks; cited from earlier work"}},
  "note": "Read-outs that look alike come from different tables or passages of the source.",
  "data": [
    {"compound": "O=Cc1c[nH]c2ccccc12", "note": "[IAld, indole-3-carboxaldehyde]", "values": [
      {"measurement": "AhR activation", "setting": "AhR [1]", "result": "AhR activation was observed"},
      {"measurement": "AhR activation", "setting": "AhR [2]", "result": "AhR activation was observed"}
    ]},
    {"compound": "O=C(O)C(O)Cc1c[nH]c2ccccc12", "note": "(stereo not drawn) [ILA, indole-3-lactic acid]", "values": [
      {"measurement": "AhR activation", "setting": "AhR [1]", "result": "AhR activation was observed"},
      {"measurement": "AhR activation", "setting": "AhR [2]", "result": "AhR activation was observed"}
    ]},
    {"compound": "O=C(O)CCc1c[nH]c2ccccc12", "note": "[IPA, indole-3-propionic acid]", "values": [
      {"measurement": "reduction of weight gain", "setting": "[3]", "result": "~50", "unit": "%"},
      {"measurement": "reduction of weight gain", "setting": "[4]", "result": "~60", "unit": "%"}
    ]}
  ]
}
